Assays:
Wistar rats = experiment: Water maze spatial learning and memory task; assay type: in vivo, rat; conditions: for water maze learning performance (escape latency) vs control: 8 doses, rats
Experimental: Water maze spatial learning and memory task (2 training trials/day for 4 days) was used to evaluate effects of oral DCPLA-ME on learning and memory in rats. A visible platform test was conducted after the end of the experiments to evaluate whether the treatment might result in an altered sensorimotor activity and escape motivation.
Male adult Wistar rats (200-250 g) were housed in a temperature-controlled (20-24° C.) room for a week, allowed free access to food and water, and kept on a 12-h light/dark cycle. Rats were anesthetized with sodium pentobarbital (60 mg/kg i.p) and placed in a stereotactic apparatus (Kopf Instruments, Tujunga, Calif.). The core temperature of rats was monitored and kept constant (38.0±0.5° C.) with warming light and pad. Two stainless steel guide cannulas were placed with the tips positioned at the coordinates (anterior-posterior, 0.5 mm; lateral, 1.5 mm; horizontal, 3.2 mm), under aseptic conditions. At the end of surgery and under appropriate anesthesia, rats received (s.c.) banamine (1 mg/kg) and ketoprofen (5 mg/kg) in lactate/Ringer's solution. A 7-day recovery period was allowed before any further experimentation.
On the first day of experiments, all rats were randomly assigned to different groups and swam for 2 min in a 1.5-(diameter)×0.6-m (depth) pool (22±1° C.). On the following day, rats were trained in a two-trial per day task for four consecutive days. Each training trial lasted for up to 2 min, during which rats learned to escape from water by finding a hidden platform that was placed at a fixed location and submerged 1 cm below the water surface. The navigation of the rats was tracked by a video camera. The escape latency and the route of rats' swimming across the pool to the platform were recorded. The quadrant test (1 min) was performed after removing the platform, 24 hr after the last training trial. […]
Data were analyzed using a target quadrant ratio (dividing the target quadrant distance by the average of the non-target quadrant values during the probe test; FIG. 14D).

PKC-ε = molecular target: T1, PKC-ε (Homo sapiens, UniProt Q02156); experiment: PKC activation assay with purified PKC-ε isozyme (32P-phosphoprotein formation); assay type: biochemical
T1 sequence (Q02156 1-737): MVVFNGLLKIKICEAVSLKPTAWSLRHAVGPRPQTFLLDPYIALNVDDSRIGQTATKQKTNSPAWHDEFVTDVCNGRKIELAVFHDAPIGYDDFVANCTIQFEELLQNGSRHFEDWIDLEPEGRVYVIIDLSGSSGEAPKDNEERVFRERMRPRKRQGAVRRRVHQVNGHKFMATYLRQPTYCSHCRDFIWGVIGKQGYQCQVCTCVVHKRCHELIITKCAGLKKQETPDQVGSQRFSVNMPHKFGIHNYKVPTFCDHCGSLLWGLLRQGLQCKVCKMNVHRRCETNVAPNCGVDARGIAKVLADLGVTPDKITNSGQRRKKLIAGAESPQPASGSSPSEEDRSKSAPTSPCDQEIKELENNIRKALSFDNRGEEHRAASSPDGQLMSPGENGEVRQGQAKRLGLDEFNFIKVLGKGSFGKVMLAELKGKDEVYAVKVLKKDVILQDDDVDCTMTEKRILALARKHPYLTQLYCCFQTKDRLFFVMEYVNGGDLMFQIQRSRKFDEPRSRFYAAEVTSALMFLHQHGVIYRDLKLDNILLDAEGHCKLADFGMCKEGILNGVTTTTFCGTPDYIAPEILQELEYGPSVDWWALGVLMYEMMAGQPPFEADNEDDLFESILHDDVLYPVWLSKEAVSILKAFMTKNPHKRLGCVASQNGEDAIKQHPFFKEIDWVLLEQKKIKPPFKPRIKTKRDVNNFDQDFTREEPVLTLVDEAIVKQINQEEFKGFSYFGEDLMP
Experimental: For measurement of PKC activation by DCPLA-ME, activation of recombinant PKC-α, PKC-ε, and PKC-δ was evaluated. DCPLA-ME induced activation was measured in the absence of diacylglycerol (DAG) and phosphatidylserine (PS) as described earlier. See Nelson, T. J. et al., J. Biol. Chem., 2009, 284: 34514-34521, and Kanno, T. et al., J. Cell Physiol., 2009, 221: 183-188. Individual enzymes were incubated for 15 min at 37° C. in the presence of 10 μM histones, 4.89 mM CaCl2, 10 mM MgCl2, 20 mM HEPES (pH 7.4), 0.8 mM EDTA, 4 mM EGTA, 4% glycerol, 8 μg/ml aprotinin, 8 μg/ml leupeptin, 2 mM benzamidine, and 0.5 μCi of [γ-^32P]ATP. Purified PKC-α, PKC-ε and PKC-δ were preincubated with DCPLA-ME for 5 min at room temperature. [^32P]-Phosphoprotein formation was measured by adsorption onto phosphocellulose.
To measure PKC, 10 μl of cell homogenate or purified PKC isozyme was incubated for 15 min at 37° C. in the presence of 10 μM histones, 4.89 mM CaCl2, 1.2 μg/μl phosphatidyl-L-serine, 0.18 μg/μl 1,2-dioctanoyl-sn-glycerol, 10 mM MgCl2, 20 mM HEPES (pH 7.4), 0.8 mM EDTA, 4 mM EGTA, 4% glycerol, 8 μg/ml aprotinin, 8 μg/ml leupeptin, and 2 mM benzamidine. [γ32P]ATP (0.5 μCi) was added and 32P-phosphoprotein formation was measured by adsorption onto phosphocellulose as described previously. See Nelson et al., J. Neurochemistry, 1995, 65: 2350-2357.
PKC activity of each compound was measured in the absence of diacylglycerol and phosphatidyl-L-serine and PKC-δ and PKC-ε were measured in the absence of added EGTA and CaCl2, as described by Kanno et al., J. Lipid Res., 2006, 47: 1146-1156. Low concentrations of Ca^2+ are needed because high Ca^2+ interacts with the PKC phosphatidylserine binding site and prevents activation. […] To determine their PKC isozyme specificity, the compounds were pre-incubated with purified isoforms of PKC for five minutes and the PKC activity was measured radiometrically.
The activation and PKC isozyme specificity of DCPLA-ethyl ester was measured following the procedures in Example 1(B) and (C), except that 9 ng of the purified isozyme was used and it was pre-incubated for 5 minutes at room temperature (FIG. 3). PKC-ε activation by DCPLA-tert-butyl ester and DCPLA-retinyl ester was measured in the same manner as DCPLA-ethyl ester (FIG. 3).
The EC50 values, PKC specificity, and activation for a select number of DCPLA esters was determined (see Table 1). EC50 values were determined by measuring the lowest concentration that activates by 50% of maximum activation. […] The specificity and activation of PKC by the various esters of DCPLA were determined from the measurements of activation of PKC isozymes.

CCCCCC1CC1CC1CC1CCCCCCCC(=O)OC (stereo not drawn) [DCPLA-ME, DCPLA methyl ester]
water maze learning performance (escape latency) vs control (Wistar rats; 5.3 mg/kg intragastric): did not reach a significant level | water maze learning performance (escape latency) vs control (Wistar rats; 16.0 mg/kg intragastric): improved learning performance | memory retention, target quadrant ratio vs control (Wistar rats; 16.0 mg/kg intragastric, probe test 24 hr after last trial): significant difference | Emax (PKC-ε; % of control of PKCε at maximum): 195% | Specificity ε/α (PKC-ε; Activation of PKC-ε ÷ activation or inhibition of PKCα at 3xEC50): 12.1 | PKC isozyme specificity (PKC-ε; PKC-ε vs PKC-α and PKC-δ): relatively specific for PKC-ε | PKC-ε activation (PKC-ε; in a range of 0.01-10 μM): more than 50% | EC50 (PKC-ε; lowest concentration that activates by 50% of maximum activation): 3 nM | PKC-ε activation at its peak (PKC-ε; maximum, FIG. 1, 2, 4): up to 190 % of control

Reference: patent US9163032B2, “Esters of DCPLA and methods of treatment using the same” (Blanchette Rockefeller Neurosciences Institute, priority 2011, dated 2015)
